This series in a line: Binding energy by using the equation deltaG obsd = -RT ln KD. The class given is ADME.

In ChEMBL document CHEMBL1122538, “Functional group contributions to drug-receptor interactions” (J Med Chem, 1984) one finds Binding energy data, which are given here for 56 molecules.

The molecule `COC1C2CCN(CC3CC3)C1Cc1ccc(O)cc12` (stereo unspecified) came in with a Binding energy of 12.2 kcal/mol. With `CN(C)CCC(c1ccc(Cl)cc1)c1ccccn1` (stereo unspecified) [CHLORPHENIRAMINE] the figure was 12.8 kcal/mol. `CN1CCC(=C2c3ccccc3C=Cc3ccccc32)CC1` [CYPROHEPTADINE] showed a Binding energy of 12.8 kcal/mol. `CC(=O)O[C@]1(C(C)=O)CC[C@H]2[C@@H]3C[C@H](C)C4=CC(=O)CC[C@]4(C)[C@H]3CC[C@@]21C` [MEDROXYPROGESTERONE ACETATE] yielded a Binding energy of 10.2 kcal/mol. With `CCC(=O)C1(c2cccc(O)c2)CCN(C)CC1` [KETOBEMIDONE] the figure was 10.8 kcal/mol. The figure for `NC(=O)N1c2ccccc2C=Cc2ccccc21` [CARBAMAZEPINE] is 5.9 kcal/mol; for `CC(Oc1c(Cl)cccc1Cl)C1=NCCN1` (stereo unspecified) [LOFEXIDINE] it is 11.8 kcal/mol; for `CCc1nc(N)nc(N)c1C12CC3CC(CC(C3)C1)C2` it is 13.4 kcal/mol. For `O=C(O)Cc1ccccc1Nc1c(Cl)cccc1Cl` [DICLOFENAC], the Binding energy was 9.6 kcal/mol.

As to `NC(=O)C1(N2CCCCC2)CCN(CCCC(=O)c2ccc(F)cc2)CC1` [PIPAMPERONE], the Binding energy worked out at 12.4 kcal/mol. `COc1ccc(CCN2CCC(Nc3nc4ccccc4n3Cc3ccc(F)cc3)CC2)cc1` [ASTEMIZOLE] yielded a Binding energy of 11.3 kcal/mol. The molecule `C=C(C)[C@@H]1[C@H]2OC(=O)[C@@H]1[C@]1(O)C[C@H]3O[C@]34C(=O)O[C@H]2[C@]14C` [PICROTOXININ] returned a Binding energy of 8.7 kcal/mol. With `COc1ccc(CN(CCN(C)C)c2ccccn2)cc1` [PYRILAMINE], the Binding energy worked out at 12.7 kcal/mol. The figure for `O=C(O)C(COP(=O)(O)O)[C@H](O)[C@H](O)COP(=O)(O)O` (stereo partly specified) is 8.2 kcal/mol; for `O=P(O)(O)CCCCO` it is 3.3 kcal/mol. For `C(=C\c1ccccc1)/CN1CCN(C(c2ccccc2)c2ccccc2)CC1` [CINNARIZINE], the Binding energy is 8.4 kcal/mol.

`O=C(NC1CCN(CCc2c[nH]c3ccccc23)CC1)c1ccccc1` [INDORAMIN] had a Binding energy of 11.5 kcal/mol. Molecule `O=C(O)Cc1ccccc1Oc1ccc(Cl)cc1Cl` [FENCLOFENAC] registered a Binding energy of 9.2 kcal/mol. As for `Cc1nc(N)nc(N)c1-c1ccc(Cl)c(Cl)c1` [METOPRINE], the Binding energy was 12.3 kcal/mol. In the case of `CNC(=O)Oc1cccc2ccccc12` [CARBARIL], the Binding energy turned out to be 6.4 kcal/mol. With `C[C@@H]1O[C@@H](O[C@H]2C[C@@H](O)[C@]3(CO)[C@H]4[C@H](O)C[C@]5(C)[C@@H](C6=CC(=O)OC6)CC[C@]5(O)[C@@H]4CC[C@]3(O)C2)[C@H](O)[C@H](O)[C@H]1O` [OUABAIN] the figure was 11.5 kcal/mol; with `O=C(O)Cc1ccccc1Oc1ccc(Cl)c(O)c1Cl`, 8.7 kcal/mol. Regarding `C[N+](C)(C)C` [TETRAMETHYLAMMONIUM ION], the Binding energy was found to be 3.6 kcal/mol. With `CC(C)Cc1ccc(C(C)C(=O)O)cc1` (stereo unspecified) [IBUPROFEN] the figure was 8.3 kcal/mol; with `CN1CCC(=C2c3ccccc3CCc3sccc32)CC1` [PIZOTYLINE], 13 kcal/mol.

`CCC(C)CN` (stereo unspecified): the Binding energy is 2.8 kcal/mol.

In turn, `O=C1Nc2ccc(Cl)cc2C(c2ccccc2Cl)=NC1O` (stereo unspecified) [LORAZEPAM] yielded a Binding energy of 11.6 kcal/mol. As to `Cc1ccc(/C(=C\CN2CCCC2)c2ccccn2)cc1` [TRIPROLIDINE], the Binding energy stood at 13.6 kcal/mol. For the molecule `O=c1[nH]c2ccccc2n1C1CCN(CCCC(c2ccc(F)cc2)c2ccc(F)cc2)CC1` [PIMOZIDE], the Binding energy was 12.8 kcal/mol.

The molecule `CC(CN1CCOCC1)C(C(=O)N1CCCC1)(c1ccccc1)c1ccccc1` (stereo not drawn) [RACEMORAMIDE] displayed a Binding energy of 12.3 kcal/mol.

`Cc1ccc(F)cc1NC1=NCCN1` [FLUTONIDINE] came in with a Binding energy of 11.4 kcal/mol. With `CC[C@@H](CO)NC(=O)[C@@H]1C=C2c3cccc4c3c(cn4C)C[C@H]2N(C)C1` [METHYSERGIDE] the figure was 12.3 kcal/mol; with `O=C1NC(=O)C(c2ccccc2)(c2ccccc2)N1` [PHENYTOIN], 11.2 kcal/mol; with `O=C(O)CC(O)(CC(=O)O)C(=O)O` [CITRIC ACID], 5 kcal/mol. `O=c1[nH]c2ccccc2n1CCCN1CCC(n2c(=O)[nH]c3cc(Cl)ccc32)CC1` [DOMPERIDONE] gave a Binding energy of 13.8 kcal/mol. With `CCC1(CC)C(=O)NC(=O)N(C)C1=O` [METHARBITAL] the figure was 6.8 kcal/mol; with `CO/C=C/C(N)C(=O)O` (stereo unspecified), 5.9 kcal/mol; with `CC12CCC(CC1=O)C2(C)C` (stereo unspecified) [CAMPHOR], 11.4 kcal/mol. With `C[C@]12CCC(=O)C[C@@H]1CC[C@@H]1[C@@H]2CC[C@]2(C)[C@@H](O)CC[C@@H]12` (stereo in doubt; 155) [STANOLONE] the figure was 13.1 kcal/mol. As to `Cc1cccc(C)c1N=C1NCCCS1` [XYLAZINE], the Binding energy was 11.3 kcal/mol. With `O=C1CCC(c2ccccc2)(C2CCN(Cc3ccccc3)CC2)C(=O)N1` (stereo unspecified) [BENZETIMIDE] the figure was 12 kcal/mol. For the molecule `CCN(CC)C(=O)[C@@H]1C=C2c3cccc4[nH]cc(c34)C[C@H]2N(C)C1` [LYSERGIDE], the Binding energy is 12.7 kcal/mol. BIBROCATHOL returned a Binding energy of 10.7 kcal/mol. The figure for `O=C1NCN(c2ccccc2)C12CCN(CCCC(c1ccc(F)cc1)c1ccc(F)cc1)CC2` [FLUSPIRILENE] is 11.6 kcal/mol; for `CNCCCC1c2ccccc2C=Cc2ccccc21` [PROTRIPTYLINE] it is 10.8 kcal/mol. The figure for `C[N+](C)(C)CCOC(N)=O.[Cl-]` [CARBACHOL] is 10.7 kcal/mol; for `CN(C)CCCN1c2ccccc2Sc2ccc(Cl)cc21` [CHLORPROMAZINE] it is 12.3 kcal/mol; for `C=C(C)[C@@H]1[C@H]2OC(=O)[C@@H]1[C@]1(O)[C@H]3O[C@H]3[C@]3(CO3)[C@]1(C)[C@@H]2O` it is 8.8 kcal/mol.

In the case of `COC(=O)[C@@H]1[C@H]2C[C@H]3c4[nH]c5ccccc5c4CCN3C[C@@H]2CC[C@@H]1O` [YOHIMBINE], the Binding energy stood at 11.9 kcal/mol. With `CN1C[C@H](CNC(=O)OCc2ccccc2)C[C@@H]2c3cccc4c3c(cn4C)C[C@H]21` [METERGOLINE] the figure was 13 kcal/mol.

Turning to `CCC(=O)C(CC(C)N(C)C)(c1ccccc1)c1ccccc1` (stereo unspecified) [METHADONE], the Binding energy worked out at 11.8 kcal/mol.

Take `CCC1(c2ccccc2)C(=O)NC(=O)N(C)C1=O` (stereo unspecified) [MEPHOBARBITAL]: the Binding energy was determined as 7.3 kcal/mol. With `O=P(O)(O)/C=C/CCO` the figure was 4.1 kcal/mol; with `Nc1ncnc2c1ncn2[C@@H]1O[C@H](CO)C[C@H]1O` [CORDYCEPIN], 8.2 kcal/mol; with `ClC1=C(Cl)[C@]2(Cl)[C@@H]3[C@@H]4C[C@@H]([C@H]5O[C@@H]45)[C@@H]3[C@@]1(Cl)C2(Cl)Cl` [DIELDRIN], 6.1 kcal/mol.

The molecule `COc1cc2nc(N3CCN(C(=O)c4ccco4)CC3)nc(N)c2cc1OC` [PRAZOSIN] registered a Binding energy of 13.1 kcal/mol.
